Usually EC50 stands for the concentration at which the effect is half-maximal.

Activity calls are given as the source filed them.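 Rule for the calls: active = mean EC50 under 30 µM; inactive = the rest.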 A value given as a limit tells only on which side of the number the result lay.

Our source for the EC50 values is PubChem BioAssay AID2198 (Vanderbilt High Throughput Screening Facility, 2009).

The target in this experiment is Muscarinic acetylcholine receptor M5 (Homo sapiens) (UniProt P08912). Kind of experiment: potentiation of ACh EC20 at hM5 – cell-based, calcium, SAR follow-up (AID 2198). The conditions noted are these: CHO-K1 hM5, Fluo-4 calcium.
Muscarinic acetylcholine receptor M5 (Homo sapiens), sequence (P08912 whole entry, looked up): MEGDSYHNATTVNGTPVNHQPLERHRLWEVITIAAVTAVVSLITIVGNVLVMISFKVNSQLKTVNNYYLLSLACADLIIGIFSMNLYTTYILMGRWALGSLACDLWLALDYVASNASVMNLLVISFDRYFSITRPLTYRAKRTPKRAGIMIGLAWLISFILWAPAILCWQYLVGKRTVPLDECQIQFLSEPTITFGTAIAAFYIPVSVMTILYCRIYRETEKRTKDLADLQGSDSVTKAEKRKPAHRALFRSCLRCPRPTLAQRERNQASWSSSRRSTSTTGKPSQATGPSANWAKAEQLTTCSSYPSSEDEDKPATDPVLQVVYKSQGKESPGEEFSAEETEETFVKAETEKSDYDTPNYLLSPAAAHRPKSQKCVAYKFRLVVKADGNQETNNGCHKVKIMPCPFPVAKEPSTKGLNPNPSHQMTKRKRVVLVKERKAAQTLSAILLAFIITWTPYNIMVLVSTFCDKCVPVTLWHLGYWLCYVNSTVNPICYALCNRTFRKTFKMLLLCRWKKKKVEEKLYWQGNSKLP
Consider `O=C1C(=O)N(Cc2ccccc2Cl)c2ccc(OC(F)(F)F)cc21`, for which the EC50 is 4.07 µM. The figure for `O=C1C(=O)N(Cc2ccc(C(F)(F)F)cc2)c2ccccc21` is 3.19 µM; for `O=C1C(=O)N(Cc2ccc(C(F)(F)F)cc2)c2c(F)cccc21` it is 3.26 µM.

As to `O=C1C(=O)N(Cc2ccc(C(F)(F)F)cc2)c2ccc(Cl)cc21`, the concentration for a half-maximal effect (EC50) was 3.3 µM. The figure for `Cc1ccccc1CN1C(=O)C(=O)c2cc(OC(F)(F)F)ccc21` is 3.28 µM; for `O=C1C(=O)N(Cc2ccc(Br)cc2)c2c(F)cccc21` it is 1.93 µM; for `COc1cccc(CN2C(=O)C(=O)c3cc(OC(F)(F)F)ccc32)c1` it is 1.7 µM. For `COc1ccc(CN2C(=O)C(=O)c3cccc(Cl)c32)cc1`, the EC50 was 3.96 µM.

As for `O=C1C(=O)N(Cc2ccc(OC(F)(F)F)cc2)c2ccc(OC(F)(F)F)cc21`, the concentration for a half-maximal effect (EC50) was 1.86 µM.

For `COc1cccc(CN2C(=O)C(=O)c3c(Cl)ccc(Cl)c32)c1`, the EC50 was 7.15 µM.

Take `O=C1C(=O)N(Cc2ccc(Br)cc2F)c2ccc(OC(F)(F)F)cc21`: the EC50 is > 30 µM (inactive). As for `O=C1C(=O)N(Cc2ccc(Br)cc2F)c2c(Cl)cccc21`, the figure is 4.66 µM; as for `COc1ccc(CN2C(=O)C(=O)c3ccccc32)cc1`, > 30 µM (inactive); as for `O=C1C(=O)N(Cc2ccccc2C(F)(F)F)c2c(F)cccc21`, > 30 µM (inactive). The figure for `O=C1C(=O)N(Cc2ccc(C(F)(F)F)cc2)c2ccc(OC(F)(F)F)cc21` is 1.85 µM; for `O=C1C(=O)N(Cc2ccccc2C(F)(F)F)c2ccc(F)cc21` it is > 30 µM (inactive); for `COc1ccc(CN2C(=O)C(=O)c3cc(OC(F)(F)F)ccc32)cc1` it is 1.16 µM.
